pIC50: −log10 of the molar value.
Test system: 354836-022-R-J1-PDC multicell spheroid viability
Experiment: Anticancer human tumor 354836-022-R-J1-PDC patient-derived head and neck squamous cell carcinoma cell line growth inhibition [PI3K]
Conditions: for pIC50: curve of first compound; for viability, T/C: stronger effect = lower value
Outline: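 Spheroid viability read-out. Co-cultures contained the tumor line plus HUVEC and human MSCs. Each agent was paired with a PI3K inhibitor (inavolisib, alpelisib, duvelisib, copanlisib) across half-log dilutions starting at clinical Cmax, or at 10 microM when Cmax was unknown.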

[1] = second compound 0.00316 µM, first compound 0.000316 µM
[2] = second compound 0.00316 µM, first compound 0.001 µM
[3] = second compound 0.00316 µM, first compound 0.00316 µM
[4] = second compound 0.00316 µM, first compound 0.01 µM
[5] = second compound 0.00316 µM, first compound 0.0316 µM
[6] = second compound 0.00316 µM, first compound 0.1 µM
[7] = second compound 0.01 µM, first compound 0.000316 µM
[8] = second compound 0.01 µM, first compound 0.001 µM
[9] = second compound 0.01 µM, first compound 0.00316 µM
[10] = second compound 0.01 µM, first compound 0.01 µM
[11] = second compound 0.01 µM, first compound 0.0316 µM
[12] = second compound 0.01 µM, first compound 0.1 µM
[13] = second compound 0.0316 µM, first compound 0.000316 µM
[14] = second compound 0.0316 µM, first compound 0.001 µM
[15] = second compound 0.0316 µM, first compound 0.00316 µM
[16] = second compound 0.0316 µM, first compound 0.01 µM
[17] = second compound 0.0316 µM, first compound 0.0316 µM
[18] = second compound 0.0316 µM, first compound 0.1 µM
[19] = second compound 0.1 µM, first compound 0.000316 µM
[20] = second compound 0.1 µM, first compound 0.001 µM
[21] = second compound 0.1 µM, first compound 0.00316 µM
[22] = second compound 0.1 µM, first compound 0.01 µM
[23] = second compound 0.1 µM, first compound 0.0316 µM
[24] = second compound 0.1 µM, first compound 0.1 µM
[25] = second compound 0.316 µM, first compound 0.000316 µM
[26] = second compound 0.316 µM, first compound 0.001 µM
[27] = second compound 0.316 µM, first compound 0.00316 µM
[28] = second compound 0.316 µM, first compound 0.01 µM
[29] = second compound 0.316 µM, first compound 0.0316 µM
[30] = second compound 0.316 µM, first compound 0.1 µM
[31] = second compound 1 µM, first compound 0.000316 µM
[32] = second compound 1 µM, first compound 0.001 µM
[33] = second compound 1 µM, first compound 0.00316 µM
[34] = second compound 1 µM, first compound 0.01 µM
[35] = second compound 1 µM, first compound 0.0316 µM
[36] = second compound 1 µM, first compound 0.1 µM
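Further: spheroids exposed to agents for seven days before the viability read.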

With CC(=O)c1c(C)c2cnc(Nc3ccc(N4CCNCC4)cn3)nc2n(C2CCCC2)c1=O + COc1c(OCCCN2CCOCC2)ccc2c3n(c(=NC(=O)c4cnc(N)nc4)nc12)CCN3 the pIC50 (second compound 0.00316 µM) was < 7.00, the pIC50 (second compound 0.01 µM) was < 7.00 and the pIC50 (second compound 0.0316 µM) was < 7.00. For the same compound, the pIC50 (second compound 0.1 µM) was < 7.00, the pIC50 (second compound 0.316 µM) was > 9.50 and the pIC50 (second compound 1 µM) was > 9.50. For the same compound, the viability, T/C [1] was 115%, the viability, T/C [2] was 116% and the viability, T/C [3] was 119%. The viability, T/C [4] was 113%, the viability, T/C [5] was 99.9% and the viability, T/C [6] was 107%. It also gave a viability, T/C [7] of 107%, a viability, T/C [8] of 121% and a viability, T/C [9] of 93.7%. It also gave a viability, T/C [10] of 99.1%, a viability, T/C [11] of 85.1% and a viability, T/C [12] of 105%. The viability, T/C [13] was 78.7%, the viability, T/C [14] was 92.1% and the viability, T/C [15] was 81.3%. The viability, T/C [16] was 82.2%, the viability, T/C [17] was 95.9% and the viability, T/C [18] was 83.3%. It also gave a viability, T/C [19] of 48.8%, a viability, T/C [20] of 54.3% and a viability, T/C [21] of 57.6%. It also gave a viability, T/C [22] of 61.3%, a viability, T/C [23] of 55.7% and a viability, T/C [24] of 59.6%. The viability, T/C [25] was 15.9%, the viability, T/C [26] was 16.5% and the viability, T/C [27] was 12.5%. For the same compound, the viability, T/C [28] was 14.6%, the viability, T/C [29] was 15.2% and the viability, T/C [30] was 14.1%. For the same compound, the viability, T/C [31] was 2.1%, the viability, T/C [32] was 1.43% and the viability, T/C [33] was 1.73%. The viability, T/C [34] was 2.18%, the viability, T/C [35] was 2.06% and the viability, T/C [36] was 1.39%.

CC(C)n1nc(-c2ccc3oc(N)nc3c2)c2c(N)ncnc21 + COc1c(OCCCN2CCOCC2)ccc2c3n(c(=NC(=O)c4cnc(N)nc4)nc12)CCN3 was tested, and the pIC50 (second compound 0.00316 µM) was 7.94, the pIC50 (second compound 0.01 µM) was 7.97 and the pIC50 (second compound 0.0316 µM) was 8.04. For the same compound, the pIC50 (second compound 0.1 µM) was > 9.50, the pIC50 (second compound 0.316 µM) was > 9.50 and the pIC50 (second compound 1 µM) was > 9.50. It also gave a viability, T/C [1] of 103%, a viability, T/C [2] of 70.8% and a viability, T/C [3] of 77.9%. It also gave a viability, T/C [4] of 50.9%, a viability, T/C [5] of 33% and a viability, T/C [6] of 3.49%. The viability, T/C [7] was 93.3%, the viability, T/C [8] was 86.8% and the viability, T/C [9] was 67.7%. The viability, T/C [10] was 52.3%, the viability, T/C [11] was 28.3% and the viability, T/C [12] was 3.55%. For the same compound, the viability, T/C [13] was 67%, the viability, T/C [14] was 70.8% and the viability, T/C [15] was 61.7%. For the same compound, the viability, T/C [16] was 49%, the viability, T/C [17] was 23.5% and the viability, T/C [18] was 2.77%. The viability, T/C [19] was 49%, the viability, T/C [20] was 48.2% and the viability, T/C [21] was 36.4%. The viability, T/C [22] was 27.4%, the viability, T/C [23] was 11.9% and the viability, T/C [24] was 2.07%. The viability, T/C [25] was 16.2%, the viability, T/C [26] was 9.69% and the viability, T/C [27] was 8.47%. It also gave a viability, T/C [28] of 10.1%, a viability, T/C [29] of 3.38% and a viability, T/C [30] of 0.76%. For the same compound, the viability, T/C [31] was 1.52%, the viability, T/C [32] was 1.5% and the viability, T/C [33] was 1.64%. It also gave a viability, T/C [34] of 1.22%, a viability, T/C [35] of 0.82% and a viability, T/C [36] of 0.62%.

With CCCS(=O)(=O)Nc1ccc(F)c(C(=O)c2c[nH]c3ncc(-c4ccc(Cl)cc4)cc23)c1F + COc1c(OCCCN2CCOCC2)ccc2c3n(c(=NC(=O)c4cnc(N)nc4)nc12)CCN3 the pIC50 (second compound 0.00316 µM) was 5.23, the pIC50 (second compound 0.01 µM) was 5.23 and the pIC50 (second compound 0.0316 µM) was 5.37. For the same compound, the pIC50 (second compound 0.1 µM) was > 7.50, the pIC50 (second compound 0.316 µM) was > 7.50 and the pIC50 (second compound 1 µM) was > 7.50. The viability, T/C [5] was 99.6%, the viability, T/C [6] was 96% and the viability, T/C (second compound 0.00316 µM, first compound 0.316 µM) was 97.8%. It also gave a viability, T/C (second compound 0.00316 µM, first compound 1 µM) of 108%, a viability, T/C (second compound 0.00316 µM, first compound 3.16 µM) of 86.4% and a viability, T/C (second compound 0.00316 µM, first compound 10 µM) of 18.6%. It also gave a viability, T/C [11] of 85.1%, a viability, T/C [12] of 93.7% and a viability, T/C (second compound 0.01 µM, first compound 0.316 µM) of 93.7%. For the same compound, the viability, T/C (second compound 0.01 µM, first compound 1 µM) was 91.4%, the viability, T/C (second compound 0.01 µM, first compound 3.16 µM) was 86.4% and the viability, T/C (second compound 0.01 µM, first compound 10 µM) was 19.1%. For the same compound, the viability, T/C [17] was 72.8%, the viability, T/C [18] was 86.7% and the viability, T/C (second compound 0.0316 µM, first compound 0.316 µM) was 86.3%. It also gave a viability, T/C (second compound 0.0316 µM, first compound 1 µM) of 78.6%, a viability, T/C (second compound 0.0316 µM, first compound 3.16 µM) of 64% and a viability, T/C (second compound 0.0316 µM, first compound 10 µM) of 11.1%. It also gave a viability, T/C [23] of 48.2%, a viability, T/C [24] of 43.8% and a viability, T/C (second compound 0.1 µM, first compound 0.316 µM) of 47.1%. For the same compound, the viability, T/C (second compound 0.1 µM, first compound 1 µM) was 56.4%, the viability, T/C (second compound 0.1 µM, first compound 3.16 µM) was 40.7% and the viability, T/C (second compound 0.1 µM, first compound 10 µM) was 7.62%. For the same compound, the viability, T/C [29] was 12.5%, the viability, T/C [30] was 13.2% and the viability, T/C (second compound 0.316 µM, first compound 0.316 µM) was 12.3%. For the same compound, the viability, T/C (second compound 0.316 µM, first compound 1 µM) was 13.6%, the viability, T/C (second compound 0.316 µM, first compound 3.16 µM) was 12.4% and the viability, T/C (second compound 0.316 µM, first compound 10 µM) was 1.45%. For the same compound, the viability, T/C [35] was 1.35%, the viability, T/C [36] was 1.58% and the viability, T/C (second compound 1 µM, first compound 0.316 µM) was 2.26%. The viability, T/C (second compound 1 µM, first compound 1 µM) was 1.47%, the viability, T/C (second compound 1 µM, first compound 3.16 µM) was 1.69% and the viability, T/C (second compound 1 µM, first compound 10 µM) was 0.99%.
